Legend:
[1] = system: Tyrosine-protein kinase ABL1 (Homo sapiens), P00519 [F317I]; assay: Inhibition of phosphorylated ABL1 F317I mutant (unknown origin) assessed as residual activity at 1000 nM by KINOMEscan analysis relative to control
[2] = molecular target: Calcium/calmodulin-dependent protein kinase kinase 1 (Homo sapiens) (UniProt Q8N5S9); assay: Inhibition of CAMKK1 (unknown origin) assessed as residual activity at 1000 nM by KINOMEscan analysis relative to control
[3] = molecular target: T1, Dual specificity tyrosine-phosphorylation-regulated kinase 2 (Homo sapiens) (UniProt Q92630); assay: Inhibition of DYRK2 (unknown origin) assessed as residual activity at 1000 nM by KINOMEscan analysis relative to control
T1 sequence (whole entry): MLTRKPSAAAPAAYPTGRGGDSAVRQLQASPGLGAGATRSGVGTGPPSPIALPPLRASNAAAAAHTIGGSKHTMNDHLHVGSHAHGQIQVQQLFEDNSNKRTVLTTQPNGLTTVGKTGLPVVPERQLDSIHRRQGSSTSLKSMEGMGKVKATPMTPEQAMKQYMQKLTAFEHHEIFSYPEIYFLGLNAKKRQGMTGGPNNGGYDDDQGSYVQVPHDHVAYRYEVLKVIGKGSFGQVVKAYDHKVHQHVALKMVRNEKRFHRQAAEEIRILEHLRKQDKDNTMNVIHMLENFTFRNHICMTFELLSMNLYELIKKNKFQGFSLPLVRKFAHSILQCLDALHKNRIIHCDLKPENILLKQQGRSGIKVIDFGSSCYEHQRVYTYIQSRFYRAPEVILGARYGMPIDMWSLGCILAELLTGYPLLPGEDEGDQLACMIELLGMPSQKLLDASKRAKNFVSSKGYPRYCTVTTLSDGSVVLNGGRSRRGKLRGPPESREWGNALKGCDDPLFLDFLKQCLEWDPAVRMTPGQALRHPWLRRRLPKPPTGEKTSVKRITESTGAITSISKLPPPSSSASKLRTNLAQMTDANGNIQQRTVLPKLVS

[4] = molecular target: Ephrin type-A receptor 4 (Homo sapiens) (UniProt P54764); assay: Inhibition of EPHA4 (unknown origin) assessed as residual activity at 1000 nM by KINOMEscan analysis relative to control
[5] = molecular target: T2, Rhodopsin kinase GRK7 (Homo sapiens) (UniProt Q8WTQ7); assay: Inhibition of GRK7 (unknown origin) assessed as residual activity at 1000 nM by KINOMEscan analysis relative to control
T2 sequence (whole entry): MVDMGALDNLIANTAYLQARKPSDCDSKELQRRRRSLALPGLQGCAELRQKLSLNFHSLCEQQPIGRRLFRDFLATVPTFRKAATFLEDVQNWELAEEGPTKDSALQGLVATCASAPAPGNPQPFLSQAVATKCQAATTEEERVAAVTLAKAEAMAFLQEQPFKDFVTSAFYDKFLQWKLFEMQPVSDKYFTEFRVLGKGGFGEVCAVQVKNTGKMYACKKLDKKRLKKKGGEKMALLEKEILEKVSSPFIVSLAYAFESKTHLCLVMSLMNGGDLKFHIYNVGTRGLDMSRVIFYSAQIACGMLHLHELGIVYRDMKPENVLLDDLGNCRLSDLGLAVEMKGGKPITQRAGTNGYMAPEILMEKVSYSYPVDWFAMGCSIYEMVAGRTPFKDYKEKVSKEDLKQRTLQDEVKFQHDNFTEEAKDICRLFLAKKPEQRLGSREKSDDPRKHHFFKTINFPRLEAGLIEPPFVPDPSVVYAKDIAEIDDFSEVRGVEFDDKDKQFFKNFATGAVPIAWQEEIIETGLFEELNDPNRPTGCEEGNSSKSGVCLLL

[6] = molecular target: T3, Hormonally up-regulated neu tumor-associated kinase (Homo sapiens) (UniProt P57058); assay: Inhibition of HUNK (unknown origin) assessed as residual activity at 1000 nM by KINOMEscan analysis relative to control
T3 sequence (whole entry): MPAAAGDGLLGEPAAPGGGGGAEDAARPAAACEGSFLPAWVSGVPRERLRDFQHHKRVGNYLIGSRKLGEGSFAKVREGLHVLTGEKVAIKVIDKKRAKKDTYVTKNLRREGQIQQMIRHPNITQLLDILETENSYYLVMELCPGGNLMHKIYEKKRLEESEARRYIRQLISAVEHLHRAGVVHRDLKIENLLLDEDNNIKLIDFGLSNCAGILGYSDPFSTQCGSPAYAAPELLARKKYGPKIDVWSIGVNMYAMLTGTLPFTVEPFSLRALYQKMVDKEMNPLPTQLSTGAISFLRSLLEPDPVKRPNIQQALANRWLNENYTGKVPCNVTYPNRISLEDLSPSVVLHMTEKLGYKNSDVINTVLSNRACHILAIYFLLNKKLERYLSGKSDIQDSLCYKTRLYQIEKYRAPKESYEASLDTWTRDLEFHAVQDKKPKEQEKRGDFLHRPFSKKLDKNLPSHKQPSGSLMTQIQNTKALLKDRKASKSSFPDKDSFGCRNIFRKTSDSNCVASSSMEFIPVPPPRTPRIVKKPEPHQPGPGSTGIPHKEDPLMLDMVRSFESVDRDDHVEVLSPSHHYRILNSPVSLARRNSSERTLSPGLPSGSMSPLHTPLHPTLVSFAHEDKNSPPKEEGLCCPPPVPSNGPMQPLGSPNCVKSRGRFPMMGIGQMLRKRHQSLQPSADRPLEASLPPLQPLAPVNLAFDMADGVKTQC

[7] = molecular target: Mast/stem cell growth factor receptor Kit (Homo sapiens) (UniProt P10721); assay: Inhibition of autoinhibited KIT (unknown origin) assessed as residual activity at 1000 nM by KINOMEscan analysis relative to control
[8] = molecular target: Hepatocyte growth factor receptor (Homo sapiens) (UniProt P08581); assay: Inhibition of MET (unknown origin) assessed as residual activity at 1000 nM by KINOMEscan analysis relative to control
[9] = molecular target: Transient receptor potential cation channel subfamily M member 6 (Homo sapiens) (UniProt Q9BX84); assay: Inhibition of TRPM6 (unknown origin) assessed as residual activity at 1000 nM by KINOMEscan analysis relative to control

Mast/stem cell growth factor receptor Kit (Homo sapiens), sequence (P10721 whole entry): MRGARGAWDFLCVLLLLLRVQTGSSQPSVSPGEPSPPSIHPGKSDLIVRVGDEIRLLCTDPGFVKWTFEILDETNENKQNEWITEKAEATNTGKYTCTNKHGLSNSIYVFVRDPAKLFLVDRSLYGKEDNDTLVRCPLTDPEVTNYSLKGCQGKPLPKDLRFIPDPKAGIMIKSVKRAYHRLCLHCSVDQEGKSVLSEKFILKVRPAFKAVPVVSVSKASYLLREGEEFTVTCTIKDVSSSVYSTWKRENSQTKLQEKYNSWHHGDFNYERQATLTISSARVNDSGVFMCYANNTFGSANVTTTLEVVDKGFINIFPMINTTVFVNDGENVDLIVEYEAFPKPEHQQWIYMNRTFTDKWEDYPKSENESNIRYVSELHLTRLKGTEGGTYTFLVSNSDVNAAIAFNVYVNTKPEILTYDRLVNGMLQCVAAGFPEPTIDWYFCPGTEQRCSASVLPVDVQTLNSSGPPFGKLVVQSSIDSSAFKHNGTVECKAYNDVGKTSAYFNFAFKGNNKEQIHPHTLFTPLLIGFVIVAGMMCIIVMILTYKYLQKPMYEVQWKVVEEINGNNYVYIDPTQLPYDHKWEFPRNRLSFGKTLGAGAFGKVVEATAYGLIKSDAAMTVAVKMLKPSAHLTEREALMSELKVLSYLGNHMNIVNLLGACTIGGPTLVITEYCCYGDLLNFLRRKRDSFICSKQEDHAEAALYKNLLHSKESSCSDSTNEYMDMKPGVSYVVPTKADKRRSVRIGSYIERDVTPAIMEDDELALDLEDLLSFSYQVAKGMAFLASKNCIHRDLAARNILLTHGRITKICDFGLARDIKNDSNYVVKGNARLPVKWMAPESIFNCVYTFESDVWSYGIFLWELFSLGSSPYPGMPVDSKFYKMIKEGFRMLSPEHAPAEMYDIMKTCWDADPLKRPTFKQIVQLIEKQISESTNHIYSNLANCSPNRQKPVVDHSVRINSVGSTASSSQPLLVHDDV
Ephrin type-A receptor 4 (Homo sapiens), sequence (P54764 whole entry): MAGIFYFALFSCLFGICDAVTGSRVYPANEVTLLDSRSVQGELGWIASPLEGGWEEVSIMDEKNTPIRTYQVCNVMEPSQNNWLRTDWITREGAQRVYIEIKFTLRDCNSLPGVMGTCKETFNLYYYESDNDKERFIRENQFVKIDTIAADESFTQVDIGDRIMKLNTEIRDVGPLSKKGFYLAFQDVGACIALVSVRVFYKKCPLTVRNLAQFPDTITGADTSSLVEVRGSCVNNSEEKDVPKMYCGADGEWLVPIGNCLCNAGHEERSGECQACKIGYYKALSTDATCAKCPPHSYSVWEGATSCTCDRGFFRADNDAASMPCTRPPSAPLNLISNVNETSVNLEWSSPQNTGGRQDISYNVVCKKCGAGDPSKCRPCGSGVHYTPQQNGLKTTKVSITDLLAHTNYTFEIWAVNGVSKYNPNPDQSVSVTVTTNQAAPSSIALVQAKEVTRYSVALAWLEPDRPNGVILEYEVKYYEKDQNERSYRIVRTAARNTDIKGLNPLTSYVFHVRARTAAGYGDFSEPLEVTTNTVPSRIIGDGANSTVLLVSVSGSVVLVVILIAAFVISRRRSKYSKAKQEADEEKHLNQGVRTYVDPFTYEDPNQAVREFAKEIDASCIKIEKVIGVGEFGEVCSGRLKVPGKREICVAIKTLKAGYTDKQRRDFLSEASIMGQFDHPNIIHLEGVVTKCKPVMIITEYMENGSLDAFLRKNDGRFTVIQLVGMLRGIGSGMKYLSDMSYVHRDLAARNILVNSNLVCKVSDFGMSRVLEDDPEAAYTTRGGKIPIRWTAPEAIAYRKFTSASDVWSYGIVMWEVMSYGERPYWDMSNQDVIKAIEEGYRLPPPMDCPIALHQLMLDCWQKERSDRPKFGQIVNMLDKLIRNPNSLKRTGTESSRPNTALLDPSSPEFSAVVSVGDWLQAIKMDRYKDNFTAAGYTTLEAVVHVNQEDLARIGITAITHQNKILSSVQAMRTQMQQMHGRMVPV
Calcium/calmodulin-dependent protein kinase kinase 1 (Homo sapiens), sequence (Q8N5S9 whole entry, looked up): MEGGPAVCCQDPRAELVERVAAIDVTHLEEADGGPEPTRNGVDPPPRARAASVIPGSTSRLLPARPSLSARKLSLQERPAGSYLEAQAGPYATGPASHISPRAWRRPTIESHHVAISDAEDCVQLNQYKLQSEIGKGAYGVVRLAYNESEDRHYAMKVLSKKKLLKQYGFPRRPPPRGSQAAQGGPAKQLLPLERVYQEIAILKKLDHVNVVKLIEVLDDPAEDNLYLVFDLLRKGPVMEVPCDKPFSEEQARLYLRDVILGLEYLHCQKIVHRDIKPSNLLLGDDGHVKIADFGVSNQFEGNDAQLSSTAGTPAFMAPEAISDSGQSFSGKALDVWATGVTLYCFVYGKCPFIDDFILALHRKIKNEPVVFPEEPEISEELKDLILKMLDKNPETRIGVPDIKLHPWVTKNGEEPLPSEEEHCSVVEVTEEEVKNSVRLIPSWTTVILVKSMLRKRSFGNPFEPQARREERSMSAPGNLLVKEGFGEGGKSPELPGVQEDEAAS
Hepatocyte growth factor receptor (Homo sapiens), sequence (P08581 whole entry): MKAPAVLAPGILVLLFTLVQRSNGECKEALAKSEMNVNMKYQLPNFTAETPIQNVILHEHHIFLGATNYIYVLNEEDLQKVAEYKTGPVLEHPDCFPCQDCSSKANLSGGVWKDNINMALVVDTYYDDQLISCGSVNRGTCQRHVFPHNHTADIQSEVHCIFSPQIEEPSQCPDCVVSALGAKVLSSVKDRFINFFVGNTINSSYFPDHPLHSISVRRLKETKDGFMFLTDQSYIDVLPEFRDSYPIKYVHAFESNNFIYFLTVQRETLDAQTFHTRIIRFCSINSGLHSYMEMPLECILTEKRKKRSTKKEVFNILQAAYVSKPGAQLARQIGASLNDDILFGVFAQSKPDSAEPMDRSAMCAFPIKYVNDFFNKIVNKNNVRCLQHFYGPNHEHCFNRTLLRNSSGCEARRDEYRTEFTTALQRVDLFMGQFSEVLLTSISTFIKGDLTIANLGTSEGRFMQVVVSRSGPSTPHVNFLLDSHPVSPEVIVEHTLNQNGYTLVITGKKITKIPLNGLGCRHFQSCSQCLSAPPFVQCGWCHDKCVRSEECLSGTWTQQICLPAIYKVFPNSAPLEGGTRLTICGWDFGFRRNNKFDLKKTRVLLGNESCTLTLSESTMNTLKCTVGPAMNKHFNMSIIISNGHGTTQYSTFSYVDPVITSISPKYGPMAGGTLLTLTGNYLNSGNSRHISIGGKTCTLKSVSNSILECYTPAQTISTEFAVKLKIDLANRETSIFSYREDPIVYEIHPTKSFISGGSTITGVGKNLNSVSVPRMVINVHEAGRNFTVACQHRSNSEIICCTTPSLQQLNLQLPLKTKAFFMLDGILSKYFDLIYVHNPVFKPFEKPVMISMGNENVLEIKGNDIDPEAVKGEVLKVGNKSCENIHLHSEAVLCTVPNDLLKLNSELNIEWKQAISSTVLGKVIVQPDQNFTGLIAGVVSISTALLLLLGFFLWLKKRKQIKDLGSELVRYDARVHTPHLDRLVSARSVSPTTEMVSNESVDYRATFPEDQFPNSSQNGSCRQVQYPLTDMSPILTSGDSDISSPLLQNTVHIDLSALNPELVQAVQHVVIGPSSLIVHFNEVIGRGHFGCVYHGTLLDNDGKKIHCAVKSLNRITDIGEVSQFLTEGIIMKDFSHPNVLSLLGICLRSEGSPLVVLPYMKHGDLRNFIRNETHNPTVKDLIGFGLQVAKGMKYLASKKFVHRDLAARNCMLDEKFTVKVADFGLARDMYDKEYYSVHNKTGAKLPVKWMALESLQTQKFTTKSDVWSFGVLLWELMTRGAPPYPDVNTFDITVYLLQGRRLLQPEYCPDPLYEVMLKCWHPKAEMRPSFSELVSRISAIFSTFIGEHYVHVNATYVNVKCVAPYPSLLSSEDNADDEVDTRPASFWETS
Tyrosine-protein kinase ABL1 (Homo sapiens), P00519 [F317I], sequence (P00519 whole entry F317I): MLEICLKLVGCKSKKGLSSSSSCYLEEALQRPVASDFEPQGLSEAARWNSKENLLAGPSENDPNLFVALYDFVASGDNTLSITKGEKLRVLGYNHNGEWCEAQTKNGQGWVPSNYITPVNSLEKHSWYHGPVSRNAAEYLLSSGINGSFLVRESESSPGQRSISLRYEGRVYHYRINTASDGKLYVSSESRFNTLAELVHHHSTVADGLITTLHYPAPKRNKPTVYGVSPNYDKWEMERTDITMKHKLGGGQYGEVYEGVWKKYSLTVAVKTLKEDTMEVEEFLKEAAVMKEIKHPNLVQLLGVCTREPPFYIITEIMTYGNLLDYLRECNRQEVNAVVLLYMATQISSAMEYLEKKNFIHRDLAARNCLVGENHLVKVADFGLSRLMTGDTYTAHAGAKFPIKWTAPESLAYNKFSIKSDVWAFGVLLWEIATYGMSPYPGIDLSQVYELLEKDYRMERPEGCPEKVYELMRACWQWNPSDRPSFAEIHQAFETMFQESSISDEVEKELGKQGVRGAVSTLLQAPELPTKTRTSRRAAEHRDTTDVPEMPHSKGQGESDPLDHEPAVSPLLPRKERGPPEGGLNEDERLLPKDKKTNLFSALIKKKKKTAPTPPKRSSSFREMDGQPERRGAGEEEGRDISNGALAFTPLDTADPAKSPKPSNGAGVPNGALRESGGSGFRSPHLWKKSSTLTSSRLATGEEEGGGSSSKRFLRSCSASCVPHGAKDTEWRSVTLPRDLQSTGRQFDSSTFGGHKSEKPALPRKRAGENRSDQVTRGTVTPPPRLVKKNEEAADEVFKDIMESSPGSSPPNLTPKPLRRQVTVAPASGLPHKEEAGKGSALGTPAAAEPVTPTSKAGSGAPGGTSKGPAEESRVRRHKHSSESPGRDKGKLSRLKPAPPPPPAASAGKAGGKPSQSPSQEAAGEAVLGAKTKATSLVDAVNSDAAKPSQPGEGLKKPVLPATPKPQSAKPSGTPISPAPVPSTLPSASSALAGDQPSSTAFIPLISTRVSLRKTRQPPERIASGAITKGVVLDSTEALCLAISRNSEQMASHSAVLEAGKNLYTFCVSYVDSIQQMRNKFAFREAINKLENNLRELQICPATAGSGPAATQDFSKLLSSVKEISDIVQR

Q: How did the Activity [1] turn out when `COc1cc2nc(C)nc(N[C@H](C)c3cccc(-c4cn[nH]c4)c3)c2cc1OC` was run?
A: 75%

Q: What about the Activity [2] of the same compound?
A: 73%

Q: And the Activity [3]?
A: 99%

Q: And the Activity [4]?
A: 96%

Q: And the Activity [5]?
A: 100%

Q: And the Activity [6]?
A: 94%

Q: What about the Activity [7] of the same compound?
A: 100%

Q: What about the Activity [8] of the same compound?
A: 97%

Q: What about the Activity [9] of the same compound?
A: 84%

Q: What does the source list for `COc1cc2ncnc(N[C@H](C)c3cccc4ccccc34)c2cc1OC`?
A: Activity [1]: 71%; Activity [2]: 97%; Activity [3]: 90%; Activity [4]: 95%; Activity [5]: 81%; Activity [6]: 76%; Activity [7]: 93%; Activity [8]: 100%; Activity [9]: 100%

Reference: ChEMBL document CHEMBL5678818, “Discovery of potent SOS1 inhibitors that block RAS activation via disruption of the RAS-SOS1 interaction” (Proc Natl Acad Sci U S A, 2019)
